Test results published in publication PMC5764437, “Discovery of novel, orally bioavailable, antileishmanial compounds using phenotypic screening” (PLoS Neglected Tropical Diseases, 2017).
Counter-ions that a name gives are not always drawn. Like-named read-outs stand apart in the source and are kept apart here. Starred links: 1 amine or outer side, 2 acyl side, 3 side chain; linkers in the order of their positions; H or OH if unused. Positions of bridges follow the written chain, without caps; N, C: chain ends. Non-standard residues stand in square brackets, D forms with d. Residues, ends and D or L forms follow the SMILES beside them. Chains are numbered I, II in the order given. Actinocin(9to1) = Cc1c2oc3c(C)ccc(C(=O)[*:1])c3nc-2c(C(=O)[*:2])c(N)c1=O; NMeV = CN[C@H](C(=O)O)C(C)C; Sar = CNCC(=O)O

Columns and labels:
[1] = tested on: L. mexicana intracellular amastigotes; experiment: Growth inhibition of intracellular amastigotes in J774A.1 macrophages (Renilla luciferase luminescence); format: cell-based; settings: Leishmania mexicana
Description: (§1) L. mexicana (MNYZ/BZ/62/M379) or L. donovani (LdBob strain) parasites expressing the Renilla luciferase gene from a rRNA gene locus were used to infect J774A.1 macrophages. Growth of intracellular amastigotes was measured using a luminescence assay, as detailed previously. The growth inhibitor activities of compounds were tested against bloodstream form Lister 427 T. brucei in 96-well plates containing 1 X 10^5 parasites per well in 0.2 ml HMI-11 medium (Gibco/Thermo Fisher). Compounds (2 μl volumes in DMSO) were added to the parasites using serial 3-fold dilutions to cover a range of concentrations from about 10 μM to 1 nM. After 48 h incubation at 37°C under a humidified 5% CO2 atmosphere, 10 μl of 10% Triton X-100 and 100 X stock SYBR Green I (Sigma-Aldrich) in PBS was added and florescence measured (excitation 497 nm; emission 520 nm) after 1 h incubation in the dark using a Spectra Max Gemini XPS fluorimeter (Molecular Devices). Data were log transformed and EC50 values were determined using GraphPad Prism 6 (GraphPad Software). In the absence of growth inhibiting compounds, the parasites grew from an initial density of 5 X 10^5 cells/mL to ~3 X 10^6 cells/mL.
[…]. These were chosen as candidates for further study. From these 230 compounds, we were able to repurchase 113 from commercial vendors. These compounds were characterized for purity by ultra-performance liquid chromatography using ultraviolet spectroscopy and evaporative light scattering detection and identity by mass spectrometry. All validated compounds were profiled for activity against intracellular amastigotes, the disease-causing stage of the life cycle. Intracellular amastigote activity was determined using a strain of L. mexicana in which the Renilla luciferase gene was integrated into the rRNA locus, allowing robust expression for measuring amastigote growth within cultured macrophages. All 113 compounds were applied at 1 μM concentration for 96 h to J774A.1 macrophages infected with L. mexicana luciferase-expressing parasites. […].
Next, we generated dose-response curves for these 55 compounds against intracellular amastigotes and independently against J774A.1 macrophages to establish the relative potency of each compound against the pathogen and its host cell. […]. The nine remaining compounds, each representing a unique chemical scaffold (compounds 1–9, Fig 3), were designated top hits (Fig 1).

[2] = tested on: L. donovani intracellular amastigotes; experiment: as above; format: cell-based; settings: Leishmania donovani
Description: as §1

[3] = tested on: bloodstream form Lister 427 T. brucei; experiment: Growth inhibition of T. brucei bloodstream forms (SYBR Green I); format: cell-based; settings: Trypanosoma brucei, read-out: T. brucei EC50
Description: as §1

[4] = tested on: J774A.1 macrophages; experiment: Cytotoxicity to J774A.1 macrophages (dose-response); format: cell-based; settings: for EC50: Mus musculus
Description: Cytotoxicity of compounds to J774.A1 macrophages was determined by dose-response curves as described previously. In the absence of growth inhibitors or DMSO, the macrophages increased in number ~6-fold over 96 h in Minimum Essential Medium, employed for both macrophage infections and the toxicity assays.

[5] = Mouse plasma protein binding assay (Rapid Equilibrium Dialysis); format: in vitro ADME; settings: mouse, mouse plasma, pH 7.4; Conc. 4 μM
Description: A Rapid Equilibrium Dialysis (RED) Plate (Thermo Scientific, catalog #, PI-90007) was used to determine the percentage of compound binding to mouse plasma proteins (Thermo Scientific, catalog #, 50642085). The positive control for this experiment was propranolol HCl (295.807 g/mol) and the internal standard was warfarin in methanol (2 μM). 10 mM stocks of compound in DMSO were diluted with DMSO and acetonitrile to three different intermediate concentrations: high (2 mM), medium (0.4 mM) and low (0.08 mM) concentration in DMSO:acetonitrile (1:4, v:v). 10 mM stock of propranolol in DMSO were diluted to 0.4 mM concentration in DMSO:acetonitrile (1:4 v:v).
In 10 Eppendorf tubes, the control (10 μL) or each of three compound dilutions (10 μL) were each added to separate aliquots of 990 μL mouse plasma. Potassium phosphate buffer (500 μL, 0.1 M, pH 7.4, 37 °C) was placed in every white well of the RED plate and each plasma/compound mixture was added to each of 3 RED wells (300 μL). The RED plate holds triplicate samples of one control (final concentration […]) and one compound (final concentrations: 20 μM, 4 μM, […]). The RED Plate was sealed and incubated at 37 °C shaking at 250 rpm for 4 hours. After incubation, aliquots (50 μL) from each well in the RED plate were transferred to an assay plate (pION Inc., MA, #110323). In order to create a uniform matrix in every well of the assay plate, plasma (50 μL) was added to each of the wells that already contained buffer and potassium phosphate buffer (50 μL) was added to each of the wells that already contained plasma/compound. Pre-cooled internal standard (300 μL) was added to the assay plate to quench the reaction. The quenched plate was then centrifuged (5810R, Eppendorf, Westbury, NY) at 3000 rpm for 20 minutes.
The percentage of free compound [1] and bound compound [2] was calculated usng the AUC ratio of compound to warfarin from the SIR spectra. For reporting data, % Free = Concentration buffer/Concentration plasma *100 %, and % Bound = 100% - % Free.

[6] = tested on: L. mexicana promastigotes; experiment: High-throughput assay for growth inhibition of promastigotes (SYBR Green I); format: cell-based
Description: Into each well of 384-well microplates (black polystyrene, clear bottom, tissue culture treated, Corning), 15 μl of medium (DME-L [41] plus 100 μM xanthine and 10% heat inactivated fetal calf serum) was dispensed with a liquid dispenser (Matrix Wellmate, Thermo Scientific). Stock compounds, dissolved in DMSO at a fixed concentration of 10 mM, were pin-transferred (V&P Scientific) into the microplate to the desired final concentration using an automated robot arm. To each well of the plates, 15 μl of L. mexicana promastigotes (strain MNYZ/BZ/62/M379, 2 x 10^6/mL) was added with the Wellmate dispenser. Microplates were incubated (Liconic) at 28°C and 5% CO2 for 72 h. After incubation, 10 μl of lysis/dye solution (5X SYBR Green I, 5% Triton X-100 in PBS) was added to each well. Plates were shaken at 1000 rpm, incubated at room temperature for 20 min, and fluorescence signal measured (excitation 485 nm, emission 535 nm) with the Envision plate reader (PerkinElmer).
The initial promastigote screen was performed with the St. Jude Chemical Biology & Therapeutics (CBT) library consisting of 596,414 compounds. Library compounds were filtered by several computational methods to remove those likely to have undesirable physical or biological properties and biased towards oral bioavailability. In this way we focused the collection on compounds most likely to be effective in cellular models of activity, without structural features that would pose a challenge to drug development. In the primary screen, compounds were applied to promastigotes of L. mexicana at a fixed concentration of 10 μM, and parasite proliferation was monitored, following a 72 h incubation, by quantifying total DNA content after lysis using the nucleic acid binding dye SYBR Green I [45].
To confirm the activity of the primary hits and improve confidence that they would be reasonable starting points for drug development, a variety of secondary screens and analyses were employed (Fig 1A). […]. In parallel, mammalian cell growth inhibition was determined using in vitro proliferation assays with normal human fibroblasts (BJ cells). […]. To further triage the hits, we carried out a chemical structure analysis for the 2,703 primary hit compounds utilizing topology mapping and clustering methodology. We identified a wide range of chemotypes, including several scaffolds with potential structure-activity relationships (SARs), based on their dose response activity (Fig 2). Validated hits were then culled by eliminating scaffolds with less favorable drug development properties such as charged planar structures, reactive electrophilic warheads, known pan-assay interference motifs (PAINS), and compounds displaying gross rule of five noncompliance. Finally, we prioritized scaffolds with the possibility of facile chemical modification to generate a substantial number of structural analogs for future SAR and structure-property relationship (SPR) studies.

[7] = J774.A1, intracellular amastigotes in J774A.1 macrophages, mean ± standard deviation, n = 2, read-out: L. mexicana EC50
[8] = J774.A1, intracellular amastigotes in J774A.1 macrophages, mean ± standard deviation, n = 2, read-out: L. donovani EC50
[9] = bloodstream form, mean ± standard deviation, n = 2
[10] = J774.A1, host macrophage, tested up to 10 μM, mean ± standard deviation, n = 2, read-out: J774A.1 EC50
[11] = Leishmania mexicana, bracketed references point to earlier reports of antileishmanial activity, read-out: EC50 of known inhibitors identified by the HTS
[12] = bracketed references point to earlier reports of antileishmanial activity, read-out: EC50 of known inhibitors identified by the HTS

`CC[C@H]1CN2CCc3cc(OC)c(OC)cc3[C@@H]2C[C@@H]1C[C@H]1NCCc2cc(O)c(OC)cc21` [Compound 1, cephaeline] gave an EC50 ([1]; J774.A1, read-out: L. mexicana EC50) of 0.6 ± 0.2 nM, an EC50 ([2]; J774.A1, read-out: L. donovani EC50) of 2 ± 0.5 nM and an EC50 [3] of 800 ± 200 nM. It also gave an EC50 ([4]; J774.A1, read-out: J774A.1 EC50) of 920 ± 900 nM.
`Fc1ccccc1Nc1nc(NCc2ccccc2)c2ccccc2n1` [Compound 2] showed an EC50 [1, 7] of 44 ± 23 nM, an EC50 [2, 8] of 130 ± 20 nM and an EC50 [3, 9] of 2000 nM. The EC50 [4, 10] was over 10000 nM and the “Reduction in viability / inhibition of host macrophage J774A.1 in dose-response studies” value ([4]; up to 10 μM) was “no reduction in viability”.
`CCN(CC)c1ccc(C2N(C)c3ccccc3N2C)cc1` [Compound 6] showed an EC50 [1, 7] of 5.5 ± 4.9 nM, an EC50 [2, 8] of 6 ± 7 nM and an EC50 [3, 9] of 2000 ± 400 nM. It also gave an EC50 [4, 10] of 3500 ± 700 nM.
`CCCCCCCCn1c2c(c(=N)c3ccccc31)CCC2` [Compound 7] gave an EC50 [1, 7] of 7 ± 6 nM, an EC50 [2, 8] of 11 ± 8 nM and an EC50 [3, 9] of 460 ± 400 nM. For the same compound, the EC50 [4, 10] was 700 ± 300 nM.
For `CC(C)NCC(O)COc1cccc2ccccc12` (centres unmarked) [Propranolol HCl, reference compound], the fraction unbound at 4 h, 4 μM [5] was 0.284.
`Cc1c2oc3c(C)ccc(C(=O)N[C@@H]4C(=O)N[C@H](C(C)C)C(=O)N5CCC[C@H]5C(=O)N(C)CC(=O)N(C)[C@@H](C(C)C)C(=O)O[C@@H]4C)c3nc-2c(C(=O)N[C@@H]2C(=O)N[C@H](C(C)C)C(=O)N3CCC[C@H]3C(=O)N(C)CC(=O)N(C)[C@@H](C(C)C)C(=O)O[C@@H]2C)c(N)c1=O` [actinomycin D] (I: T[dV]P[Sar][NMeV] / II: T[dV]P[Sar][NMeV]; ester I:1-I:C, II:1-II:C; linker I:N-II:N via Actinocin(9to1)) showed an EC50 [6, 11] of 360 nM.
`COc1ccc(C[C@H]2NC[C@H](O)[C@H]2OC(C)=O)cc1` [anisomycin] gave an EC50 [6, 12] of 580 nM.
`CN(C)c1ccc(C(=C2C=CC(=[N+](C)C)C=C2)c2ccc(N(C)C)cc2)cc1` [crystal violet] showed an EC50 [6, 11] of 290 nM.
For `CCN(CC)C(=S)SSC(=S)N(CC)CC` [disulfiram], the EC50 [6, 11] was 500 nM.
For `N=C(N)c1ccc(OCCCCCOc2ccc(C(=N)N)cc2)cc1` [pentamidine], the “Inhibition of proliferation (HTS positive control)” value ([6]; 72 h, primary screen conditions) was 100% and the EC50 ([6]; Leishmania mexicana, 72 h, median over HTS plates, interquartile range 1.7–3.1, read-out: EC50 of the control per screening plate (median)) was 2300 nM.
`CN(C)C(=S)SSC(=S)N(C)C` [thiram] showed an EC50 [6, 11] of 1770 nM.
For avicin, the EC50 [6, 12] was 1500 nM.
